Laboratory results as given in patent US11400081B2, “Compounds” (The University of Sheffield, priority 2017, dated 2022).

Molecular target: T1, AM2 receptor (CALCRL+RAMP3) (Homo sapiens, UniProt O60896+Q16602)
T1 construct: host or cells: 1321N1
Test: AM2 receptor inhibition, LANCE TR-FRET cAMP agonist-antagonist competition assay
Assay type: cell-based
Settings: inhibition of AM induced cAMP activation; 1321N1 cells transfected with CALCRL+RAMP3; read-out: AM2 pIC50 (converted)
Method: Compounds were assessed for their ability to inhibit ligand-induced elevations of cAMP, using the Perkin Elmer LANCE cAMP assay using commercially-available cells expressing a specific receptor of interest using the following general procedure:
Compounds were prepared in dimethyl sulfoxide (DMSO—99.9% pure) (Sigma Aldrich, Cat #: D4540) added to powder stocks to produce a 20 mM solution (100% DMSO) that was sonicated at 37° C. for 10 minutes to fully dissolve the compounds. The 20 mM stocks were diluted further in DMSO to produce a 2 mM solution that was sonicated at 37° C. for 10 minutes. 2 mM stocks were dissolved in assay/stimulation buffer to produce a 400 μM solution that was sonicated at 37° C. for 10 minutes for all cAMP assays. All stocks were stored at −20° C. Then serial dilution (Dilution factor 10) was performed to achieve the desire experimental concentrations.
Competition assays were performed according to the manufactures instructions using LANCE® TR-FRET cAMP assay kit (Perkin Elmer, Cat #: AD0264). Serial dilutions (3 μl/well) of the molecules were plated in a 384-well OptiPlate (Perkin Elmer, Cat #: 6007299) in duplicates. Appropriate controls (100% stimulation: Forskolin and 0% stimulation: Vehicle control) (6 μl/well) were included in each plate for data normalization. Following the compound addition, 6 μl of G-protein coupled receptor overexpressing cells/Alexa Fluor antibody solution (1:100 dilution) was added in each well at a desired density of 2500 cells/well. The overexpressing cell lines were purchased from DiscoveRx, Birmingham, UK. After spinning the plate at 1000 rpm for 1 minute and vortexing briefly, the cells were pre-incubated with the compounds for 30 minutes at room temperature (covered). Then 3 μl of the equivalent peptide ligand (EC50 dose) was added to all the wells except vehicle and forskolin controls. The plate were then spun down at 1000 rpm for 1 minute and once finished they were vortexed briefly and covered. Cells were stimulated in the presence of the ligands for 15 minutes at room temperature. After stimulation 12 μl of detection mix (Europium-Chelate streptavidin/biotinylated cAMP tracer solution) was added to all wells and incubated for 60 minutes at room temperature. The plate was then read on the Enspire multimode Plate reader (Perkin Elmer), at; 320/340 nm excitation and 615/665 nm emission was recorded.
• 28 mL Hank's Balanced salt solution (+MgCl2, +CaCl2)—(Thermo Fisher Cat #:14170112) • 150 μl HEPES (1M)—(Thermo Fisher Cat #:15630080) • 400 μl Stabilizer (DTPA) Purified BSA (7.5%)—(Perkin Elmer, Cat #: CR84-100) • 60 μl IBMX (250 mM)—(Sigma Aldrich, Cat #: 15879) Specific cAMP/Agonist-Antagonist Competition Assays
The ability of a compound to inhibit the AM induced cAMP activation in AM2 receptor-expressing cells (1321N1 cells transfected with CALCRL+RAMP3, sourced from DiscoverX catalogue number 95-0169C6) was assessed using the protocol above.

T1 sequence (Q16602 23-461): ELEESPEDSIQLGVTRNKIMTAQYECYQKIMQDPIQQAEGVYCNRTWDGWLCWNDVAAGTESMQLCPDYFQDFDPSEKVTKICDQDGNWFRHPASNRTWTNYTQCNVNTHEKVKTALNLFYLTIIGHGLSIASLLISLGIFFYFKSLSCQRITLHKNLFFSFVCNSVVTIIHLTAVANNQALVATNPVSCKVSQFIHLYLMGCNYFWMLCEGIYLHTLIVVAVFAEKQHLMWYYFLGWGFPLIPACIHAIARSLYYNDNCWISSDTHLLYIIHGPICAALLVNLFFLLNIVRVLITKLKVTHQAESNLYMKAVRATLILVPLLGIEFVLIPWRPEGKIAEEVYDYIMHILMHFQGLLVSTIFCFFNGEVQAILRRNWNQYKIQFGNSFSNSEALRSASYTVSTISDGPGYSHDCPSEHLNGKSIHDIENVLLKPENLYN
T1 sequence (O60896 24-148): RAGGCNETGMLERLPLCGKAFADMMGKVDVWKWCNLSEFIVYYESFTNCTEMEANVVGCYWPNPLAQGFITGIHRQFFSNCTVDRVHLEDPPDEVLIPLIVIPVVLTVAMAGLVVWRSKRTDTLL

SMILES | IC50 [nM]
O=C(CN(Cc1ccccc1CN1CCC1)C(=O)C1CC1)Nc1ccc2c(c1)CC1(C2)C(=O)Nc2ncccc21 (stereo not shown) [Example 49, N-(2-(Azetidin-1-ylmethyl)benzyl)-N-(2-oxo-2-((2′-oxo-1,1′,2′,3-tetrahydrospiro[indene-2,3′-pyrrolo[2,3-b]pyridin]-5-yl)amino)ethyl)cyclopropanecarboxamide] | 10.2
CNCc1ccccc1CN(CC(=O)Nc1ccc2c(c1)CC1(C2)C(=O)Nc2ncccc21)C(=O)N1CCCC1 (stereo not shown) [Example 81, N-(2-((Methylamino)methyl)benzyl)-N-(2-oxo-2-((2′-oxo-1,1′,2′,3-tetrahydrospiro[indene-2,3′-pyrrolo[2,3-b]pyridin]-5-yl)amino)ethyl)pyrrolidine-1-carboxamide] | 7.41
COC(=O)N(CC(=O)Nc1ccc2c(c1)CC1(C2)C(=O)Nc2ncccc21)Cc1ccccc1CN1CCC1 (stereo not shown) [Example 50, Methyl 2-(azetidin-1-ylmethyl)benzyl(2-oxo-2-((2′-oxo-1,1′,2′,3-tetrahydrospiro[indene-2,3′-pyrrolo[2,3-b]pyridin]-5-yl)amino)ethyl)carbamate] | 74.1
CNCc1ccccc1CN(CC(=O)Nc1ccc2c(c1)CC1(C2)C(=O)Nc2ncccc21)C(=O)C1CCCO1 (stereo not shown) [Example 63, N-(2-((Methylamino)methyl)benzyl)-N-(2-oxo-2-((2′-oxo-1,1′,2′,3-tetrahydrospiro[indene-2,3′-pyrrolo[2,3-b]pyridin]-5-yl)amino)ethyl)tetrahydrofuran-2-carboxamide] | 53.7
CC(C)(C)C(=O)N(CC(=O)Nc1ccc2c(c1)CC1(C2)C(=O)Nc2ncccc21)Cc1ccccc1CNCc1ncc[nH]1 (stereo not shown) [Example 9, N-(2-((((1H-Imidazol-2-yl)methyl)amino)methyl)benzyl)-N-(2-oxo-2-((2′-oxo-1,1′,2′,3-tetrahydrospiro[indene-2,3′-pyrrolo[2,3-b]pyridine]-5-yl)amino)ethyl)pivalamide] | 240
CNCc1ccccc1CN(C(=O)C(C)(C)C)[C@@H](C)C(=O)Nc1ccc2c(c1)CC1(C2)C(=O)Nc2ncccc21 (stereo partly drawn) [Example 34, N-(2-((Methylamino)methyl)benzyl)-N-((2S)-1-oxo-1-((2′-oxo-1,1′,2′,3-tetrahydrospiro[indene-2,3′-pyrrolo[2,3-b]pyridin]-5-yl)amino)propan-2-yl)pivalamide] | 12.3
CC(C)(C)OC(=O)N(CC(=O)Nc1ccc2c(c1)CC1(C2)C(=O)Nc2ncccc21)Cc1ccccc1CN1CCC1 (stereo not shown) [Example 44, tert-Butyl 2-(azetidin-1-ylmethyl)benzyl(2-oxo-2-((2′-oxo-1,1′,2′,3-tetrahydrospiro[indene-2,3′-pyrrolo[2,3-b]pyridin]-5-yl)amino)ethyl)carbamate] | 74.1

Further lines, results first:

IC50 [nM] | SMILES
501 | CNCc1ccccc1CN(CC(=O)Nc1ccc2c(c1)CC1(C2)C(=O)Nc2ncccc21)C(=O)N1CCC2(CCNCC2)C1 (stereo not shown) [Example 90, N-(2-((Methylamino)methyl)benzyl)-N-(2-oxo-2-((2′-oxo-1,1′,2′,3-tetrahydrospiro[indene-2,3′-pyrrolo[2,3-b]pyridin]-5-yl)amino)ethyl)-2,8-diazaspiro[4.5]decane-2-carboxamide]
324 | CC(C)(C)C(=O)N(CC(=O)Nc1ccc2c(c1)CC1(C2)C(=O)Nc2ncccc21)Cc1ccccc1CNCC(F)F (stereo not shown) [Example 3, N-(2-(((2,2-Difluoroethyl)amino)methyl)benzyl)-N-(2-oxo-2-((2′-oxo-1,1′,2′,3-tetrahydrospiro[indene-2,3′-pyrrolo[2,3-b]pyridine]-5-yl)amino)ethyl)pivalamide]
44.7 | CNCc1ccccc1CN(CC(=O)Nc1ccc2c(c1)CC1(C2)C(=O)Nc2ncccc21)C(=O)C12CC(N)(C1)C2 (stereo not shown) [Example 77, 3-amino-N-[[2-(methylaminomethyl)phenyl]methyl]-N-[2-oxo-2-[(2-oxospiro[1H-pyrrolo[2,3-b]pyridine-3,2′-indane]-5′-yl)amino]ethyl]bicyclo[1.1.1]pentane-1-carboxamide bis(2,2,2-trifluoroacetate)]
